Data set [1] is described as follows: MTT cytotoxicity assay, RWPE-1 cells (normal prostate cell-line). It counts as cell-based. The settings on record: human, RWPE-1, MTT, 72-hour incubation. For orientation: Tetrazolium dyes change colour on reduction, which living cells bring about.
The test system of data set [2] is DU-145 cells. Put plainly: MTT cytotoxicity assay, single drugs and combinations, DU-145 cells. It counts as cell-based. The settings on record: Homo sapiens; DU-145, MTT, 72-hour incubation.
Data set [3] can be described thus: MTT cytotoxicity assay, WI-38 cells (normal lung cell-line). It counts as cell-based. To be noted: human, WI-38, MTT, 72-hour incubation.
Data set [4] has as its system PC3 cells implanted subcutaneously. Briefly: Subcutaneous PC3 tumor growth in male BALB/c nude mice. The class given is in vivo. To be noted: ip. The protocol:
Male BALB/c nude mice (BALB/cOlaHsd-Foxnlnu, 20-30 g, 7-8 weeks old) (Envigo RMS Inc, Indianapolis, Ind.) were used for all experiments. Animals were housed individually at room temperature and were kept on a 12:12-hour light:dark cycle with access to food and water ad libitum. Euthanasia was carried out utilizing CO2 asphyxiation. All of the experiments were approved by the Stony Brook University Animal Care and Use Committee.
Male BALB/c nude mice were subcutaneously inoculated with PC3 cells. Briefly, cells (1×10^6 per mouse) were resuspended in 100 μL of a 1:1 mixture of phosphate-buffered saline (PBS):Matrigel (Corning Inc, Corning, N.Y.) and implanted into a single dorsal lateral flank using a 21G needle. Tumor length (L) and tumor width (W) were measured twice weekly using digital calipers, and tumor volume (V) was calculated as (V═[L×W2]/2). When tumor volume reached approximately 150 to 200 mm3, animals were grouped and drug administration commenced. Humane endpoints for all animals were as follows: animals carrying a tumor burden greater than 35 days, body weight (which was recorded twice weekly) decreasing by greater than 15%, tumor ulceration, paralysis, failure to groom, bleeding, respiratory distress, and/or tumor volume reaching 1500 mm3.
SBFI-102, SBFI-103, and docetaxel were each reconstituted in a 1:1:8 vehicle consisting of dimethyl sulfoxide (DMSO) (Thermo Fisher Scientific, Hampton, N.H.):Cremaphor-EL (Sigma-Aldrich):saline. SBFI-102 and SBFI-103 were administered via intraperitoneal injection (ip) using a 27G needle at 20 mg/kg daily. Docetaxel was administered i.p. at 5 or 10 mg/kg weekly. All drugs were administered in a volume of 10 μL/g body weight.
All data were obtained from at least three independent experiments and then values described in each figure legend depict each independent trial or animal. Data for all in vivo experiments were analyzed using a one-way analysis of variance with the Tukey post hoc test (GraphPad Prism, version 8.0.2). Data are represented as means±SEM and P<0.05 was considered statistically significant. […]

In data set [5] the test system is PC3 cells. Put plainly: MTT cytotoxicity assay, single drugs and combinations, PC3 cells. The class given is cell-based. The settings on record: Homo sapiens, PC-3, 72-hour incubation.
In data set [6] the test system is 22Rv1 cells. Briefly: cells. To be noted: Homo sapiens, 22Rv1, 72 h, read-out: cytotoxicity IC50.
Data set [7] deals with PCa cell. To be noted: in vitro and in vivo (Al-Jameel, W. et al. 2017); cited from earlier work.
[8] abbreviates: 20 mg/kg, once daily, from day 15.

As a reminder, the IC50 is the concentration at which inhibition is half-maximal. With `COc1ccccc1C1[C@H](C(=O)O)[C@H](c2ccccc2OC)[C@H]1C(=O)OCC1c2ccccc2-c2ccccc21` (some centres unmarked) [SBFI-103], the IC50 at 72 h in data set [1] turned out to be 20.6 µM; in data set [3], 29.6 µM. For the same compound, the IC50 in data set [2] is 3.3 µM; in data set [5], 6.3 µM; in data set [6] it was 3.1 µM. For the same compound, the tumor growth entry in data set [4] (setting [8]) was “significantly reduced tumor growth”.

For `CC(=O)O[C@@]12CO[C@@H]1C[C@H](O)[C@@]1(C)C(=O)[C@H](O)C3=C(C)[C@@H](OC(=O)[C@H](O)[C@@H](NC(=O)OC(C)(C)C)c4ccccc4)C[C@@](O)([C@@H](OC(=O)c4ccccc4)[C@H]21)C3(C)C` [docetaxel, reference compound], the half-inhibitory concentration (IC50) is 0.0008 µM in data set [2], 0.0019 µM in data set [5] and 0.0003 µM in data set [6]. In addition, in data set [4] (docetaxel 10 mg/kg, once weekly), the tumor growth result is on record as “near complete inhibition of growth”.

For `CO[C@H]1C(=O)[C@]2(C)[C@@H](OC)C[C@H]3OC[C@@]3(OC(C)=O)[C@H]2[C@H](OC(=O)c2ccccc2)[C@]2(O)C[C@H](OC(=O)[C@H](O)[C@@H](NC(=O)OC(C)(C)C)c3ccccc3)C(C)=C1C2(C)C` [cabazitaxel, reference compound], the figures for the 50% inhibitory concentration (IC50) in data set [2], in data set [5] and in data set [6] were 0.0002 µM, 0.0016 µM and 0.0003 µM, respectively.

For the compound `O=C(O)C1[C@H](c2ccccc2)C(C(=O)Oc2cccc3ccccc23)[C@H]1c1ccccc1` (some centres unmarked) [SBFI-26], in data set [7], the “effect on PCa cell growth, migration, invasion, tumor formation and metastasis” value was “suppresses PCa cell growth, migration, invasion, tumor formation, and metastasis”.

In the case of `COc1ccccc1C1[C@H](C(=O)O)[C@H](c2ccccc2OC)[C@H]1C(=O)Oc1cccc2ccccc12` (some centres unmarked) [SBFI-102], the half-inhibitory concentration (IC50) at 72 h in data set [1] is 26 µM; in data set [3], 29.4 µM. Also, the IC50 turned out to be 8.9 µM in data set [2], 11.4 µM in data set [5] and 10.1 µM in data set [6]. In data set [4] (setting [8]), the tumor growth entry is listed as “significantly reduced tumor growth”.
